The record followed here is US12509437B2, “Substituted thiophene carboxamides and derivatives thereof as microbicides” (Bayer Aktiengesellschaft, priority 2019, dated 2025).

A short description of data set [1]: LogP by HPLC on reversed phase columns (EEC directive 79/831 Annex V.A8). The class given is physicochemical. As to conditions: reversed phase HPLC columns. A digest of the protocol:
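Reversed-phase HPLC, calibrated with straight-chain alkan-2-ones (C3–C16) of known LogP; values by linear interpolation of retention times between successive alkanones. Multiple values from one method are joined by "+"; lambda-max taken from 200–400 nm UV spectra at chromatographic peaks.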

Data set [2] concerns salicylate responsive promoter sequence of the PR1 (pathogenesis-related protein I) gene (AT2G14610). Briefly: Induction of defense gene expression in Arabidopsis thaliana (PR1 promoter-GFP reporter plants). The class given is in vivo. The conditions noted are these: 72 h, 3rd day after spraying, mock treated leaves set as 1.00, read-out: relative fluorescence value. On the procedure:
Arabidopsis thaliana reporter plants containing the coding sequence of a green fluorescent protein (GFP) linked to the salicylate responsive promoter sequence of the PR1 (pathogenesis-related protein I) gene (AT2G14610) were grown for five days and then sprayed with compounds. On the 3rd day after spraying, plant fluorescence was assessed with a MacroFluo instrument from Leica Microsystems (Wetzlar, Germany). Fluorescences were quantified with the Meta-Morph Microscopy Automation & Image Analysis Software (Molecular Devices, Sunnyvale, Calif., United States). Background fluorescence in mock treated leaves was set as 1.00.

A further data set deals with Peronospora parasitica. Briefly: In vivo preventive test on Peronospora parasitica (Crucifer downy mildew) on cabbage. The conditions noted are these: Hyaloperonospora parasitica, 120 h, sprayed 72 hours before inoculation, evaluated 5 days after inoculation, read-out: efficacy; for pest or weed control at 125 ppm: 125 ppm of active ingredient; for pest or weed control at 500 ppm: 500 ppm of active ingredient; for pest or weed control at 31 ppm: 31 ppm of active ingredient. The procedure: (§1) The tested active ingredients were prepared by homogenization in a mixture of acetone/Dimethyl sulfoxide/Tween®, and then diluted with water to obtain the desired active material concentration.
(§2) The young plants of cabbage were treated by spraying the active ingredient prepared as described above. Control plants were treated only with an aqueous solution of acetone/Dimethyl sulfoxide/Tween®.
After 72 hours, the plants were contaminated by spraying the leaves with an aqueous suspension of Peronospora parasitica spores. The contaminated cabbage plants were incubated for 5 days at 20° C. and at 100% relative humidity.
The test was evaluated 5 days after the inoculation. 0% means an efficacy which corresponds to that of the control plants while an efficacy of 100% means that no disease was observed.

Data set [3] has as its system Xanthomonas campestris pv. campestris. The data set is described as follows: In vivo preventive test on Xanthomonas campestris pv. campestris (black rot on cabbage). The conditions noted are these: Xanthomonas campestris, sprayed 72 hours before inoculation, evaluated 8 or 10 days after inoculation, read-out: efficacy; for pest or weed control at 125 ppm: 125 ppm of active ingredient; for pest or weed control at 31 ppm: 31 ppm of active ingredient. On the procedure: as §1, §2
After 72 hours, the plants were contaminated by spraying the leaves with an aqueous bacteria suspension of Xanthomonas campestris pv. campestris. The contaminated cabbage plants were incubated for 8 or 10 days at 27° C. at 95% relative humidity.
The test was evaluated 8 or 10 days after the inoculation. 0% means an efficacy which corresponds to that of the control plants while an efficacy of 100% means that no disease was observed.

Another data set deals with Uromyces appendiculatus. The data set is described as follows: In vivo preventive test on Uromyces appendiculatus (bean rust). As to conditions: 240 h, sprayed 72 hours before inoculation, evaluated 10 days after inoculation, read-out: efficacy; for pest or weed control at 125 ppm: 125 ppm of active ingredient; for pest or weed control at 500 ppm: 500 ppm of active ingredient; for pest or weed control at 31 ppm: 31 ppm of active ingredient. On the procedure: as §1
The young plants of bean were treated by spraying the active ingredient prepared as described above. Control plants were treated only with an aqueous solution of acetone/Dimethyl sulfoxide/Tween®.
After 72 hours, the plants were contaminated by spraying the leaves with an aqueous suspension of Uromyces appendiculatus spores. The contaminated bean plants were incubated for 24 hours at 20° C. and at 100% relative humidity and then for 9 days at 20° C. and at 70-80% relative humidity.
The test was evaluated 10 days after the inoculation. 0% means an efficacy which corresponds to that of the control plants while an efficacy of 100% means that no disease was observed.

In a further data set the test system is Alternaria alternata. Briefly: Alternaria alternata in vitro cell test. The class given is cell-based. As to conditions: 120 h, 5 days incubation, read-out: efficacy (inhibition of fungal growth; no direct activity); for inhibition at 5 ppm: 5 ppm of active ingredient; for inhibition at 20 ppm: 20 ppm of active ingredient. On the procedure:
(§3) • Solvent: DMSO • Culture medium: 14.6 g anhydrous D-glucose (VWR), 7.1 g Mycological Peptone (Oxoid), 1.4 g granulated Yeast Extract (Merck), QSP 1 liter • Inoculum: spores suspension Fungicides were solubilized in DMSO and the solution used to prepare the required range of concentrations. The final concentration of DMSO used in the assay was ≤[…]1%. A spore suspension of A. alternata was prepared and diluted to the desired spore density. Fungicides were evaluated for their ability to inhibit spore germination and mycelium growth in liquid culture assay. The compounds were added in the desired concentration to the culture medium with spores. After 5 days incubation, fungi-toxicity of compounds was determined by spectrometric measurement of mycelium growth. Inhibition of fungal growth was determined by comparing the absorbance values in wells containing the fungicides with the absorbance in control wells without fungicides.

Data set [4] relates to Colletotrichum lindemuthianum. Briefly: Colletotrichum lindemuthianum in vitro cell test. The class given is cell-based. The conditions noted are these: 144 h, 6 days incubation, read-out: efficacy (inhibition of fungal growth; no direct activity); for inhibition at 5 ppm: 5 ppm of active ingredient; for inhibition at 20 ppm: 20 ppm of active ingredient. On the procedure:
as §3, with “of C. lindemuthianum” for “of A. alternata”, “inhibit spores” for “inhibit spore”, “After 6” for “After 5”

Data set [5] relates to Xanthomonas campestris pv. campestris. Briefly: Xanthomonas campestris pv. campestris in vitro cell test. The class given is cell-based. As to conditions: 24 h of incubation, read-out: efficacy (inhibition of bacteria growth; no direct activity); for inhibition at 5 ppm: 5 ppm of active ingredient; for inhibition at 20 ppm: 20 ppm of active ingredient. On the procedure: (§4) • Solvent: DMSO • Culture medium: LB broth medium (Luria Broth Miller) Sigma • Inoculum: bacteria suspension Compounds were solubilized in DMSO and the solution used to prepare the required range of concentrations. The final concentration of DMSO used in the assay was ≤1%. Inoculum was prepared from a pre-culture of bacteria grown in liquid medium and diluted to the desired optical density (OD). Compounds were evaluated for their ability to inhibit bacteria growth in liquid culture assay. The compounds were added in the desired concentrations to culture medium containing the bacteria suspension. After 24 h of incubation, the efficacy of compounds was determined by spectrometric measurement of bacteria growth. Inhibition was determined by comparing the absorbance values in wells containing the compounds with the absorbance in control wells without active ingredients.

In data set [6] the test system is Pseudomonas syringae pv. tomato. Briefly: Pseudomonas syringae pv. tomato in vitro cell test. The class given is cell-based. As to conditions: 20 ppm of active ingredient, 24 h of incubation, read-out: efficacy (inhibition of bacteria growth; no direct activity). On the procedure:
as §4

Read-outs that look alike come from different tables or passages of the source.

For the molecule `COC(=O)[C@H](CCCNC(=N)N)NC(=O)c1sc(Br)c(Br)c1C` [I.035], the chromatographic logP in data set [1] (method [a]) is 1.74. For the same molecule, the fold induction at 300 ppm in data set [2] was over 2. The pest or weed control at 125 ppm lay within 70 to 79% in the data set with Peronospora parasitica, 80 to 89% in data set [3] and 80 to 89% with Uromyces appendiculatus. Also, the pest or weed control at 500 ppm in the data set with Peronospora parasitica and in the data set with Uromyces appendiculatus was 80 to 89% throughout. The inhibition at 5 ppm (with Alternaria alternata; in data set [4]; in data set [5]) was at most 30% in each case. Also, the inhibition at 20 ppm in [4], in data set [5] and in data set [6] was at most 30% in each case.
In the case of `CCSC(=O)C1(NC(=O)c2sc(Cl)c(Cl)c2C)CC1` [I.049, S-ethyl 1-{[(4,5-dichloro-3-methyl-2-thienyl)carbonyl]amino}cyclopropanecarbothioate], the chromatographic logP in data set [1] (preparation examples, method not indicated, read-out: Log P) came out at 3.67. The fold induction at 75 ppm in data set [2] is over 2. For the same molecule, the fold induction at 300 ppm in [2] is over 2. For the same molecule, the pest or weed control at 31 ppm lay within 90 to 100% in the data set with Peronospora parasitica, 80 to 89% in data set [3] and 70 to 79% with Uromyces appendiculatus. Moreover, the pest or weed control at 125 ppm with Peronospora parasitica and in the data set with Uromyces appendiculatus was 90 to 100% throughout. The values for the pest or weed control at 500 ppm (with Peronospora parasitica; in data set [3] (500 ppm of active ingredient); in the data set on Uromyces appendiculatus) were 90 to 100%, 80 to 89% and 80 to 89%, respectively. For the same molecule, the inhibition at 5 ppm (in the data set on Alternaria alternata; in [4]; in [5]) was at most 30% throughout. The inhibition at 20 ppm in data set [5] and in data set [6] was at most 30% in each case.
In turn, `Cc1c(C(=O)NC(Cc2c[nH]c3ccccc23)C(=O)O)sc(Cl)c1Cl` (stereo not shown) [I.070] yielded a chromatographic logP in data set [1] (method [a]) of 3.12. Moreover, in [2], the fold induction at 300 ppm is over 2. Also, the pest or weed control at 31 ppm (in the data set on Peronospora parasitica; in [3]) was 70 to 79% throughout. The pest or weed control at 125 ppm in the data set on Peronospora parasitica fell in the range of 90 to 100%; in data set [3], 80 to 89%. Further, the pest or weed control at 500 ppm in the data set with Peronospora parasitica and in the data set with Uromyces appendiculatus was 90 to 100% in each case. The inhibition at 5 ppm (in the data set with Alternaria alternata; in data set [4]; in data set [5]) was at most 30% each time. The inhibition at 20 ppm (in the data set on Alternaria alternata; in data set [4]; in data set [5]; in data set [6]) was at most 30% each time.
Molecule `Cc1c(C(=O)NC(CC(N)=O)C(=O)O)sc(Br)c1Br` (stereo not shown) [I.076] had a chromatographic logP in data set [1] (method [a]) of 1.73. In addition, the fold induction at 300 ppm in data set [2] was over 2. The pest or weed control at 125 ppm in the data set on Peronospora parasitica was in the range of 90 to 100%; in the data set on Uromyces appendiculatus, 80 to 89%. Besides, the pest or weed control at 500 ppm in the data set with Peronospora parasitica and in the data set with Uromyces appendiculatus was 90 to 100% throughout. Moreover, the pest or weed control at 31 ppm in data set [3] lay within 70 to 79%. In addition, the inhibition at 5 ppm (in the data set with Alternaria alternata; in [4]; in [5]) was at most 30% each time. The inhibition at 20 ppm (in the data set on Alternaria alternata; in data set [4]; in data set [5]; in data set [6]) was at most 30% each time.
As for `CCOC(=O)C(NC(=O)c1sc(Cl)c(Cl)c1C)C(F)(F)F` (stereo not shown) [I.164], the chromatographic logP in data set [1] (method [a]) stood at 4.07. For the same molecule, the fold induction at 75 ppm in data set [2] was over 2. Besides, the fold induction at 300 ppm in data set [2] was over 2. Further, the pest or weed control at 31 ppm in the data set on Peronospora parasitica lay in the range of 90 to 100%; in [3], 80 to 89%; in the data set with Uromyces appendiculatus, 90 to 100%. Besides, the pest or weed control at 125 ppm with Peronospora parasitica and in the data set with Uromyces appendiculatus was 90 to 100% throughout. The pest or weed control at 500 ppm in the data set with Peronospora parasitica was at least 90%. Besides, the inhibition at 5 ppm (with Alternaria alternata; in data set [4]; in [5]) was at most 30% each time. Further, the inhibition at 20 ppm (with Alternaria alternata; in [4]; in data set [5]; in [6]) was at most 30% each time.
As to `COC(=O)C1(NC(=O)c2sc(Cl)c(Cl)c2C)CCC1` [I.171], the chromatographic logP in data set [1] (method [a]) is 3.5. Moreover, the fold induction at 75 ppm in data set [2] is over 2. Moreover, the fold induction at 300 ppm in [2] was over 2. The pest or weed control at 31 ppm with Peronospora parasitica lay in the range of 90 to 100%; with Uromyces appendiculatus it was 80 to 89%. The pest or weed control at 125 ppm in the data set on Peronospora parasitica lay in the range of 90 to 100%; in [3] it was 70 to 79%; with Uromyces appendiculatus, 90 to 100%. Further, the inhibition at 5 ppm (in the data set on Alternaria alternata; in data set [4]; in data set [5]) was at most 30% throughout. Moreover, the inhibition at 20 ppm (with Alternaria alternata; in [5]; in data set [6]) was at most 30% throughout.
